Laboratory results as given in patent US9113629B2, “4-amino-6-(4-substituted-phenyl)-picolinates and 6-amino-2-(4-substituted-phenyl)-pyrimidine-4-carboxylates and their use as herbicides” (DOW AGROSCIENCES LLC, priority 2013, dated 2015).

What was measured:
[1] = Post-emergent Test III, herbicidal activity in wheat and barley; assay type: in vivo, Lolium multiflorum, Lolium rigidum; conditions: Lolium multiflorum, post-emergence, 504 h, Table 9, post-emergent, 21 d, read-out: Visual Growth Reduction (%) 21 Days After Application LOLSS; for pest or weed control at 35 g/ha: 35 g ai/ha; for pest or weed control at 70 g/ha: 70 g ai/ha
Outline: (§1)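 Plants at the second to third true-leaf stage, grown in a greenhouse at about 18/17 °C with a 14 h photoperiod, were sprayed post-emergence at 187 L/ha with the high rate and ½× to 1/16× serial dilutions in an acetone/DMSO/crop-oil/surfactant carrier. Injury was rated visually at 21 d on a 0–100% scale, and GR20–GR90 were derived by probit analysis.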

[2] = tested on: APESV: bentgrass (Apera spica-venti); test: as above; assay type: in vivo; conditions: Table 9, 21 d; for pest or weed control at 35 g/ha: 35 g ai/ha; for pest or weed control at 70 g/ha: 70 g ai/ha; for GR50 APESV: dose for 50 percent growth reduction; for GR50 APESV / GR80 APESV: probit analysis; for GR80 APESV: dose for 80 percent growth reduction
Outline: as §1

[3] = tested on: HORSS: barley, including spring and winter (Hordeum vulgare); test: as above; assay type: in vivo; conditions: Table 9, 21 d; for pest or weed control at 35 g/ha: 35 g ai/ha; for pest or weed control at 70 g/ha: 70 g ai/ha; for GR20 HORSS: dose for 20 percent growth reduction, probit analysis
Outline: as §1

[4] = tested on: KCHSC: kochia (Kochia scoparia); test: as above; assay type: in vivo; conditions: Table 9, 21 d; for pest or weed control at 35 g/ha: 35 g ai/ha; for pest or weed control at 70 g/ha: 70 g ai/ha; for GR50 KCHSC: dose for 50 percent growth reduction; for GR50 KCHSC / GR80 KCHSC: probit analysis; for GR80 KCHSC: dose for 80 percent growth reduction
Outline: as §1

[5] = tested on: LOLSS: ryegrass including, Italian ryegrass (Lolium multiflorum), rigid ryegrass (Lolium rigidum), annual ryegrass (Lolium multiflorum subsp. Gaudini); test: as above; assay type: in vivo; conditions: Table 9, probit analysis, 21 d; for GR50 LOLSS: dose for 50 percent growth reduction; for GR80 LOLSS: dose for 80 percent growth reduction
Outline: as §1

[6] = tested on: SETVI: green foxtail (Setaria viridis); test: as above; assay type: in vivo; conditions: Table 9, 21 d; for pest or weed control at 35 g/ha: 35 g ai/ha; for pest or weed control at 70 g/ha: 70 g ai/ha; for GR50 SETVI: dose for 50 percent growth reduction; for GR50 SETVI / GR80 SETVI: probit analysis; for GR80 SETVI: dose for 80 percent growth reduction
Outline: as §1

[7] = tested on: TRZSS: wheat, including spring and winter (Triticum aestivum); test: as above; assay type: in vivo; conditions: Table 9, 21 d; for GR20 TRZSS: dose for 20 percent growth reduction, probit analysis; for pest or weed control at 35 g/ha: 35 g ai/ha; for pest or weed control at 70 g/ha: 70 g ai/ha
Outline: as §1

[8] = Apera spica-venti, post-emergence, 504 h, post-emergent, read-out: Visual Growth Reduction (%) 21 Days After Application APESV
[9] = Hordeum vulgare, post-emergence, 504 h, post-emergent, read-out: Visual Growth Reduction (%) 21 Days After Application HORSS
[10] = Bassia scoparia, post-emergence, 504 h, post-emergent, read-out: Visual Growth Reduction (%) 21 Days After Application KCHSC
[11] = Setaria viridis, post-emergence, 504 h, post-emergent, read-out: Visual Growth Reduction (%) 21 Days After Application SETVI
[12] = Triticum aestivum, post-emergence, 504 h, post-emergent, read-out: Visual Growth Reduction (%) 21 Days After Application TRZSS

| Compound | pest or weed control at 35 g/ha [1] | pest or weed control at 70 g/ha [1] | pest or weed control at 35 g/ha [2, 8] | pest or weed control at 70 g/ha [2, 8] | GR50 APESV [2] | GR80 APESV [2] | pest or weed control at 35 g/ha [3, 9] | pest or weed control at 70 g/ha [3, 9] | GR20 HORSS [3] | pest or weed control at 35 g/ha [4, 10] | pest or weed control at 70 g/ha [4, 10] | GR50 KCHSC [4] | GR80 KCHSC [4] | GR50 LOLSS [5] | GR80 LOLSS [5] | pest or weed control at 35 g/ha [6, 11] | pest or weed control at 70 g/ha [6, 11] | GR50 SETVI [6] | GR80 SETVI [6] | GR20 TRZSS [7] | other results |
| --- | --- | --- | --- | --- | --- | --- | --- | --- | --- | --- | --- | --- | --- | --- | --- | --- | --- | --- | --- | --- | --- |
| Nc1c(Cl)c(C(=O)O)nc(-c2ccc(Br)cc2)c1Cl [Compound 125] | 0 to 29% | 0 to 29% | 75 to 84% | 85 to 94% | 10 g ai/ha | 41 g ai/ha | 85 to 94% | 95 to 100% | 1 g ai/ha | 60 to 74% | 85 to 94% | 8 g ai/ha | 34 g ai/ha | >140 g ai/ha | >140 g ai/ha | 85 to 94% | 85 to 94% | 2 g ai/ha | 16 g ai/ha | 1 g ai/ha | pest or weed control at 140 g/ha ([1]; 140 g ai/ha): 45 to 59%; pest or weed control at 140 g/ha ([2]; Apera spica-venti, post-emergence, 504 h, 140 g ai/ha, post-emergent, read-out: Visual Growth Reduction (%) 21 Days After Application APESV): 95 to 100%; pest or weed control at 140 g/ha ([3]; Hordeum vulgare, post-emergence, 504 h, 140 g ai/ha, post-emergent, read-out: Visual Growth Reduction (%) 21 Days After Application HORSS): 95 to 100%; pest or weed control at 140 g/ha ([4]; Bassia scoparia, post-emergence, 504 h, 140 g ai/ha, post-emergent, read-out: Visual Growth Reduction (%) 21 Days After Application KCHSC): 95 to 100%; pest or weed control at 140 g/ha ([6]; Setaria viridis, post-emergence, 504 h, 140 g ai/ha, post-emergent, read-out: Visual Growth Reduction (%) 21 Days After Application SETVI): 85 to 94%; pest or weed control at 35 g/ha [7, 12]: 75 to 84%; pest or weed control at 70 g/ha [7, 12]: 75 to 84%; pest or weed control at 140 g/ha ([7]; Triticum aestivum, post-emergence, 504 h, 140 g ai/ha, post-emergent, read-out: Visual Growth Reduction (%) 21 Days After Application TRZSS): 85 to 94%; melting point: 164.9 to 166.1 °C |
| COC(=O)c1nc(-c2ccc(I)cc2F)cc(N)c1Cl [Compound 159] | 45 to 59% | 60 to 74% | 85 to 94% | 95 to 100% | 11 g ai/ha | 25 g ai/ha | 85 to 94% | 95 to 100% | 1 g ai/ha | 85 to 94% | 95 to 100% | 4 g ai/ha | 19 g ai/ha | 36 g ai/ha | 89 g ai/ha | 45 to 59% | 60 to 74% | 43 g ai/ha | 113 g ai/ha | 1 g ai/ha | pest or weed control at 35 g/ha [7, 12]: 85 to 94%; pest or weed control at 70 g/ha [7, 12]: 95 to 100%; melting point: 139.8 to 141.2 °C |
| Cc1c(-c2ccc(C(F)(F)F)c(F)c2)nc(C(=O)O)c(Cl)c1N [Compound 161, 4-amino-3-chloro-6-(3-fluoro-4-(trifluoromethyl)phenyl)-5-methylpicolinic acid] | 0 to 29% | 0 to 29% | 60 to 74% | 75 to 84% | 30 g ai/ha | 57 g ai/ha | 85 to 94% | 85 to 94% | 1 g ai/ha | 0 to 29% | 0 to 29% | >140 g ai/ha | >140 g ai/ha | 38 g ai/ha | 82 g ai/ha | 30 to 44% | 60 to 74% | 53 g ai/ha | 128 g ai/ha | 1 g ai/ha | pest or weed control at 35 g/ha [7, 12]: 75 to 84%; pest or weed control at 70 g/ha [7, 12]: 75 to 84%; melting point: 170 to 171.5 °C |
| Nc1c(Cl)c(C(=O)O)nc(-c2ccc(I)cc2)c1Cl [Compound 173] | 30 to 44% | 45 to 59% | 60 to 74% | 75 to 84% | 27 g ai/ha | 59 g ai/ha | 85 to 94% | 95 to 100% | 1 g ai/ha | 30 to 44% | 45 to 59% | 60 g ai/ha | 131 g ai/ha | 119 g ai/ha | >140 g ai/ha | 30 to 44% | 45 to 59% | 54 g ai/ha | 104 g ai/ha | 1 g ai/ha | pest or weed control at 35 g/ha [7, 12]: 75 to 84%; pest or weed control at 70 g/ha [7, 12]: 85 to 94%; melting point: 188.7 to 190.3 °C |
